Experimental findings from DBAASP are described below.

Molecules are shown by their SMILES. Values after ≈ are worked out from the molar mass of the structure shown.

Among the test systems are Escherichia coli LWF+; Bacillus subtilis L170; Cupriavidus necator H16; Escherichia coli JM109.
What all share (experiment): ≥ marks a high value that may be exact or a test limit, other limits are often not marked, values filed in µg/mL are converted to µM
The subject of test [1] is Pseudomonas aeruginosa DSM 1117.
The subject of test [2] is Klebsiella pneumoniae ATCC 27736.
Test [3] deals with Escherichia coli ATCC BAA-1025.
The subject of test [4] is Staphylococcus aureus ATCC 25904.
Test [5] deals with Staphylococcus aureus DSM 1104.
The test system of test [6] is Pseudomonas aeruginosa ATCC 47085.
The test system of test [7] is Staphylococcus epidermidis DSM 1798.
Test [8] relates to Escherichia coli DSM 1103.
Test [9] deals with Listeria monocytogenes ATCC 19114.
Test [10] relates to Listeria monocytogenes ATCC 19112.
The test system of test [11] is Listeria monocytogenes F4244.
Test [12] deals with Staphylococcus aureus ATCC BAA-1717.
In test [13] the test system is Listeria monocytogenes ATCC 19111.
The test system of test [14] is Burkholderia cepacia J2540.
Test [15] concerns Bacillus subtilis DSM 357.
The test system of test [16] is Escherichia coli DH5alpha.
Test [17] concerns Escherichia coli BL21(DE3).
In test [18] the test system is Pseudomonas putida GPp104.

For the molecule `CC[C@H](C)[C@H](NC(=O)[C@H](CCCCN)NC(=O)[C@@H](NC(=O)[C@H](CCC(N)=O)NC(=O)[C@@H](N)CCCNC(=N)N)[C@@H](C)CC)C(=O)N[C@@H](Cc1c[nH]c2ccccc12)C(=O)N[C@@H](Cc1ccccc1)C(=O)N[C@@H](CCC(N)=O)C(=O)N[C@@H](CC(N)=O)C(=O)N[C@@H](CCCNC(=N)N)C(=O)N[C@@H](CCCNC(=N)N)C(=O)N[C@@H](CCSC)C(=O)N[C@@H](CCCCN)C(=O)N[C@@H](Cc1c[nH]c2ccccc12)C(=O)N[C@@H](CCCCN)C(=O)N[C@@H](CCCCN)C(=O)O` [RQIKIWFQNRRMKWKK], the MIC in [1] was no less than 51 µM; in test [2], no less than 445 µM; in test [3] it was 27.8 µM (≈ 62.5 µg/mL); in [4], no less than 111 µM; in test [5], no less than 51 µM; in test [6] it was no less than 55.6 µM. Also, the minimal inhibitory concentration (MIC) in [7] was 13 µM (≈ 29.2 µg/mL); in test [8], no less than 51 µM; in test [9] it was no less than 64 µM; in test [10] it was no less than 64 µM; in [11], no less than 128 µM; in test [12], no less than 445 µM. Further, in test [13], the minimum inhibitory concentration (MIC) is no less than 32 µM.

In the case of `CC[C@H](C)[C@H](NC(=O)[C@H](CCCCN)NC(=O)[C@H](CCCCN)NC(=O)[C@H](Cc1ccccc1)NC(=O)[C@H](CC(C)C)NC(=O)[C@H](CCCCN)NC(=O)[C@H](Cc1c[nH]c2ccccc12)NC(=O)[C@@H](N)CCCCN)C(=O)N[C@@H](Cc1ccccc1)C(=O)N[C@@H](CCCCN)C(=O)N[C@@H](CCCN=C(N)N)C(=O)N[C@H](C(=O)N[C@H](C(=O)N[C@@H](CCC(N)=O)C(=O)N[C@@H](CCCN=C(N)N)C(=O)N[C@H](C(=O)N[C@@H](CCCCN)C(=O)N[C@@H](CC(=O)O)C(=O)N[C@@H](Cc1ccccc1)C(=O)N[C@@H](CC(C)C)C(=O)N[C@@H](CCCN=C(N)N)C(=O)O)[C@@H](C)CC)C(C)C)[C@@H](C)CC` [KWKLFKKIFKRIVQRIKDFLR], the MIC in test [14] worked out at 11.2 µM (≈ 31.3 µg/mL).

Turning to `CC(C)C[C@H](NC(=O)[C@H](C)NC(=O)[C@H](CC(C)C)NC(=O)[C@H](CCCCN)NC(=O)[C@H](Cc1c[nH]c2ccccc12)NC(=O)[C@H](C)NC(=O)[C@H](CCCCN)NC(=O)[C@H](CC(C)C)NC(=O)[C@H](C)NC(=O)[C@H](CC(C)C)NC(=O)[C@H](CCCCN)NC(=O)[C@H](CC(C)C)NC(=O)[C@H](C)NC(=O)[C@H](CC(C)C)NC(=O)[C@@H](N)CCCCN)C(=O)N[C@@H](CCCCN)C(=O)N[C@@H](C)C(=O)N[C@@H](C)C(N)=O` [KLALKLALKAWKLALKAA], the MIC in test [15] stood at 1.6 µM (≈ 3.12 µg/mL); in test [16], 5.2 µM (≈ 10.1 µg/mL); in the test on Escherichia coli LWF+ it was 10 µM (≈ 19.5 µg/mL); in the test with Bacillus subtilis L170, 1.6 µM (≈ 3.12 µg/mL).

With `CC[C@H](C)[C@H](NC(=O)[C@H](Cc1ccc(O)cc1)NC(=O)[C@@H](NC(=O)[C@@H]1CCCN1C(=O)[C@H](CCCN=C(N)N)NC(=O)[C@H](CC(N)=O)NC(=O)[C@H](CC(C)C)NC(=O)[C@@H](N)CCCN=C(N)N)C(C)C)C(=O)N1CCC[C@H]1C(=O)N[C@@H](CCC(N)=O)C(=O)N1CCC[C@H]1C(=O)N[C@@H](CCCN=C(N)N)C(=O)N1CCC[C@H]1C(=O)N1CCC[C@H]1C(=O)N[C@@H](Cc1cnc[nH]1)C(=O)N1CCC[C@H]1C(=O)N[C@@H](CCCN=C(N)N)C(=O)N[C@@H](CC(C)C)C(=O)O` [RLNRPVYIPQPRPPHPRL], the MIC in test [17] was 1.25 µM (≈ 2.76 µg/mL); with Cupriavidus necator H16, no less than 50 µM; with Escherichia coli JM109 it was 10 µM (≈ 22.1 µg/mL); in [18], 12.5 µM (≈ 27.6 µg/mL).

Usually MIC stands for the lowest concentration that inhibits growth of the organism. Read a low MIC as a more susceptible organism.
